Results as given in US20040043942A1, “Vitamin preparations for reducing oxygen consumption during physical efforts” (priority 1996, published 2004).
“And” between values parts separate entries of the source, which are not always exact repeats. Equal values may be shown once.

Legend:
[1] = system: muscle glycogen synthesis; assay: stimulation of glycogen synthesis and of anaerobic glucose breakdown in the muscle (general statement); format: in vivo; settings: even if taken together with vitamin B1 and vitamin C
[2] = system: two male individuals, trained for endurance cycling; assay: Example 39 a): ergometer test, medicaments and Preparations applied 15 minutes before the test; format: in vivo, human
Method: Analogously to Example 37, the following studies a) to c) were carried out on two male individuals, trained for endurance cycling and kept on a permanently carbohydrate-rich diet; individual A (weighing 67 kg) having a maximum oxygen uptake capacity of 3.3 l and an oxygen transport volume per heart beat of 29 ml (corresponding to 0.6 kJ), and individual B (weighing 74 kg) having a maximum oxygen uptake capacity of 4.5 l and an oxygen transport volume per heart beat of 36 ml (corresponding to 0.75 kJ). The following preparations were used, in which the indicated amounts correspond to one dose unit and which were obtained by dissolving or suspending the components in water and gelling the mixture:
H-Gly-Gly-OH was bought from Novabiochem, Läufelfingen, Switzerland. Insulin was injected subcutaneously, while the other medicaments were ingested alone or together with one of Preparations I-IV.
a) In a first study, insulin or antidiabetic sulphonylurea derivatives were applied, alone or in combination with gelatin and/or Preparation I or II, 15 minutes before the tests. In the tests, individual A was subjected to a workload of 100 W (60 r.p.m.) for 15 minutes (tests A1-A8), and individual B was subjected to a workload of 175 W (60 r.p.m.) for 10 minutes (tests B9-B29).

Molecule | stimulation of glycogen synthesis and of the anaerobic glucose breakdown in the muscle (in words) [1] | effect on heat production and oxygen consumption induced by constant physical work loads (in words) ([2]; applied 15 minutes before the test) | Oxygen consumption ([2]; individual B, 175 W for 10 min, 15 min before: 5 I.U. insulin s.c., 2.5 mg glibenclamide alone, with 5 mg gelatin: 100 μg glibenclamide or 10 mg chlorpropamide, Prep. one dose unit)
O=C(CO)[C@@H](O)[C@H](O)[C@H](O)CO [fructose] | ineffective | – | –
insulin | – | increase the heat production and oxygen consumption | 32 liter and 33 liter (2×)
OC[C@H]1O[C@@](CO)(O[C@H]2O[C@H](CO)[C@@H](O)[C@H](O)[C@H]2O)[C@@H](O)[C@@H]1O [sucrose] | ineffective | – | –
